Earlier results, collected in patent US20100136089A1, “LOCATION OF FATTY ACID ESTERS ON TAMPONS AND TOXIN […]” (priority 2008, published 2010).

Test system: humans
Settings: stated as known

## CCCCCCCCCCCC(=O)OCC(O)CO (stereo not shown) [GML, glycerol monolaurate]
  toxicity to humans: non toxic to humans
